Data set [1] concerns MDA-MB-231. The data set is described as follows: Cell cycle arrest in human MDA-MB-231 cells assessed as S phase cells at 100 uM incubated for 72 hrs by PI staining based flow cytometric analysis (reference value: 29.9%). The class given is functional. (Flow cytometry measures light scatter and fluorescence of single cells or particles in a stream.)
The test system of data set [2] is A549. The data set is described as follows: Antiproliferative activity against human A549 cells assessed as reduction in cell viability incubated for 96 hrs by MTT assay. Conditions: A549, 96 h.
Data set [3] deals with MCF7. Briefly: Antiproliferative activity against human MCF7 cells assessed as reduction in cell viability incubated for 96 hrs by MTT assay. Particulars: MCF7, 96 h.
The subject of data set [4] is MDA-MB-231. Briefly: Induction of apoptosis in human MDA-MB-231 cells assessed as late apoptotic cells at 100 uM incubated for 48 hrs by Annexin V-FITC/PI staining based flow cytometric analysis (reference value: 1.06%). The class given is functional.
Data set [5] has as its system MDA-MB-231. The data set is described as follows: Induction of apoptosis in human MDA-MB-231 cells assessed as viable cells at 100 uM incubated for 48 hrs by Annexin V-FITC/PI staining based flow cytometric analysis (reference value: 95.10%). Particulars: read-out: Activity. In kind it is functional.
Data set [6] has as its system MDA-MB-231. Briefly: Antiproliferative activity against human MDA-MB-231 cells assessed as reduction in cell viability incubated for 96 hrs by MTT assay. Particulars: MDA-MB-231, 96 h. For orientation: Formazan colour is commonly taken as a measure of viable cells.
The subject of data set [7] is MDA-MB-231. Briefly: Cell cycle arrest in human MDA-MB-231 cells assessed as S phase cells at 100 uM incubated for 24 hrs by PI staining based flow cytometric analysis (reference value: 29.9%). In kind it is functional.
Data set [8] concerns MDA-MB-231. The data set is described as follows: Cell cycle arrest in human MDA-MB-231 cells assessed as G1 phase cells at 100 uM incubated for 72 hrs by PI staining based flow cytometric analysis (reference value: 51.5%). The class given is functional.
In data set [9] the test system is MDA-MB-231. Briefly: Induction of apoptosis in human MDA-MB-231 cells assessed as necrotic cells at 100 uM incubated for 48 hrs by Annexin V-FITC/PI staining based flow cytometric analysis (reference value: 1.63%). The class given is functional.
Data set [10] deals with MDA-MB-231. The data set is described as follows: Cell cycle arrest in human MDA-MB-231 cells assessed as G2 phase cells at 100 uM incubated for 48 hrs by PI staining based flow cytometric analysis (reference value: 18.6%). In kind it is functional.
For data set [11], the system named is MDA-MB-231. Briefly: Induction of apoptosis in human MDA-MB-231 cells assessed as early apoptotic cells at 100 uM incubated for 48 hrs by Annexin V-FITC/PI staining based flow cytometric analysis (reference value: 2.25 %). The class given is functional.
Data set [12] deals with MDA-MB-231. Briefly: Cell cycle arrest in human MDA-MB-231 cells assessed as S phase cells at 100 uM incubated for 48 hrs by PI staining based flow cytometric analysis (reference value: 29.9%). The class given is functional.
Data set [13] deals with MDA-MB-231. The data set is described as follows: Cell cycle arrest in human MDA-MB-231 cells assessed as G2 phase cells at 100 uM incubated for 48 hrs by PI staining based flow cytometric analysis (reference value: 7.3%). The class given is functional.
Data set [14] has as its system MDA-MB-231. Briefly: Cell cycle arrest in human MDA-MB-231 cells assessed as G1 phase cells at 100 uM incubated for 48 hrs by PI staining based flow cytometric analysis (reference value: 51.5%). In kind it is functional.
The subject of data set [15] is MDA-MB-231. The data set is described as follows: Cell cycle arrest in human MDA-MB-231 cells assessed as G1 phase cells at 100 uM incubated for 48 hrs by PI staining based flow cytometric analysis (reference value: 76.7%). In kind it is functional.
The nature of data set [16]: Cytotoxicity against human L02 cells assessed as reduction in cell viability incubated for 96 hrs by MTT assay. In kind it is toxicity, cell-based.
In data set [17] the target is Cell division cycle protein 20 homolog (Homo sapiens, UniProt Q12834). Briefly: Binding affinity human CDC20 assessed as dissociation constant by SPR analysis. On the technique in general: SPR reads the build-up and loss of mass on a sensor chip optically.
Data set [18] deals with MDA-MB-231. Briefly: Cell cycle arrest in human MDA-MB-231 cells assessed as G2 phase cells at 100 uM incubated for 24 hrs by PI staining based flow cytometric analysis (reference value: 18.6%). In kind it is functional.
In data set [19] the test system is MDA-MB-231. The data set is described as follows: Cell cycle arrest in human MDA-MB-231 cells assessed as S phase cells at 100 uM incubated for 48 hrs by PI staining based flow cytometric analysis (reference value: 16.0%). In kind it is functional.
Data set [20] has as its system MDA-MB-468. Briefly: Antiproliferative activity against human MDA-MB-468 cells assessed as reduction in cell viability incubated for 96 hrs by MTT assay. Conditions: MDA-MB-468, 96 h.
Data set [21] concerns MDA-MB-231. The data set is described as follows: Cell cycle arrest in human MDA-MB-231 cells assessed as G1 phase cells at 100 uM incubated for 24 hrs by PI staining based flow cytometric analysis (reference value: 51.5%). In kind it is functional.
The test system of data set [22] is MDA-MB-231. The data set is described as follows: Cell cycle arrest in human MDA-MB-231 cells assessed as G2 phase cells at 100 uM incubated for 72 hrs by PI staining based flow cytometric analysis (reference value: 18.6%). The class given is functional.

Sequence of Cell division cycle protein 20 homolog (Q12834 whole entry): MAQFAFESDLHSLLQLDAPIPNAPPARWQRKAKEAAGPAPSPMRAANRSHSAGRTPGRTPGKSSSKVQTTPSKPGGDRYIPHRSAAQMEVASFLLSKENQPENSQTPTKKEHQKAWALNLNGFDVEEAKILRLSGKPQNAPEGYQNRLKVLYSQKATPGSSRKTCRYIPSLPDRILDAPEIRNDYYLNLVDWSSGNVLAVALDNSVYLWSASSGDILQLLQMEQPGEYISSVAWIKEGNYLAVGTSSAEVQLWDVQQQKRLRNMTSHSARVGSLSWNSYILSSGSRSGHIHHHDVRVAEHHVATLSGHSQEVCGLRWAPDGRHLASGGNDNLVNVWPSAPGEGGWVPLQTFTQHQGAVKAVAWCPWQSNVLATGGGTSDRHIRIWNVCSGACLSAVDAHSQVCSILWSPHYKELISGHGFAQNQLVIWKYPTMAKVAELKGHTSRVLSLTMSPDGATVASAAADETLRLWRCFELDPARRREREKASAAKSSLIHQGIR

Take `Cc1ncc([N+](=O)[O-])n1CCOC(=O)NC(Nc1ncccn1)C(Cl)(Cl)Cl` (configuration not stated): the Activity is 24.6% in [1]; 3.12% in data set [4]; 45.1% in data set [7]; 39.2% in [8]; 2.43% in data set [9]; 27.7% in data set [10]. Moreover, the Activity in data set [11] was determined as 3.22%; in [12] it was 23.5%; in [13], 11.7%; in data set [14], 48.8%; in data set [15] it was 50.3%; in [18] it was 26.1%. Besides, the Activity in [19] amounted to 38%; in data set [21], 28.8%; in data set [22], 36.2%. The IC50 (usually the concentration needed to halve the response being measured) stood at 114 µM in data set [2], 109 µM in data set [3], 139 µM in [6] and 83.4 µM in [20]. The viability at 100 µM in data set [5] is 91.2%. In data set [16], the IC50 at 96 h is above 200 µM. The Kd (usually a measure of binding affinity in units of concentration) in [17] came to 172 µM.

The record behind these values is ChEMBL document CHEMBL5505975, “Design, synthesis and biological evaluation of CDC20 inhibitors for treatment of triple-negative breast cancer” (Eur J Med Chem, 2024).
